One data set deals with Murine Erythroleukemia. To be noted: Li et al., J. Med. Chem. 24, 1089 (1981); cited from earlier work.
The conditions of data set [1]: 0.8% Clonidine; 75.2% compound + 25% isopropyl myristate vs 99.2% compound vs 99.2% DMSO; cited from earlier work.
The conditions of data set [2]: 1% Diazepam in 74% ethanol and 25% compound; cited from earlier work.
For data set [3] the following is noted: for Average Cumulative Amount of ISDN in Micrograms permeating over 51 hours: cream; for permeation enhancing properties (conclusion in words): ISDN cream, 51 hours.
Data set [4] can be described thus: Permeation of Diltiazem hydrochloride (DZ) from cream through human stratum corneum (Example 35). It is filed as in vitro ADME. An excerpt:
(§1) Sci. 75, 1094 (1986). […] All formulations were studied in triplicate.

For data set [5] the following is noted: for Average Cumulative Amount of ISDN in Micrograms permeating over 51 hours: patch.
Data set [6] is classed as in vitro ADME, human.
Source text: as §1

Data set [7] is classed as in vitro ADME, human. To be noted: for Average Cumulative Amount of PG in Micrograms permeating over 51 hours: patch, releasing media 30% ethanol in normal saline.
Source text: as §1
The procedure of Example 29 was repeated with Progesterone (PG) incorporated in transdermal patch formulations. The releasing media contained 30% ethanol in normal saline.

Data set [8] is described as follows: Permeation of Morphine Sulfate (MS) from transdermal patch through human stratum corneum (Example 33). It counts as in vitro ADME.
Source text: as §1
The procedure of Example 29 was repeated with Morphine Sulfate (MS) formulations incorporated in a transdermal patch.

The conditions of data set [9]: cream.
Data set [10] is classed as in vitro ADME, human. As to the method:
as §1
The Indomethacin (INDO) gel formulation used in Example 32 was prepared as follows.
The source holds these as a separate data set.

The conditions of data set [11]: for permeation enhancing properties (conclusion in words): ISDN cream, vs control; for Average Cumulative Amount of ISDN in Micrograms permeating over 51 hours: cream, 1% ISDN + 1% enhancer.
For data set [12] the following is noted: Ishihara, C.A. 105: 48896 k (1986); cited from earlier work.
For data set [13] the following is noted: Barry et al., J. Pharm. Pharmacol. 37, 226 (1985); cited from earlier work.
For data set [14] the following is noted: cited from earlier work.

Structures can show the parent of a compound that is named as a salt. Where two headings read alike, the source gives them in different places.

On to `CCCCN1CCCN(CCCC)C1=O` [1,3-dibutyltetrahydropyrimidin-2-one, 1,3-dibutyltetrahydro-pyrimidin-2-ones], for which the “inducers of Murine Erythroleukemia differentiation” value in the data set on Murine Erythroleukemia was “inducers of Murine Erythroleukemia differentiation”.

Regarding `CCN1CCCN(CC)C1=O` [1,3-diethyltetrahydropyrimidin-2-one, 1,3-diethyl], the “inducers of Murine Erythroleukemia differentiation” value in the data set with Murine Erythroleukemia was “inducers of Murine Erythroleukemia differentiation”.

For `CN1CCN(C)C1=O` [1,3-dimethylimidazolidin-2-one], in data set [1], the “tail arterial blood pressure” value was “no significant differences in tail arterial blood pressure in rats”.

Consider `CCCCCN1CCN(CCCCC)C1=O` [1,3-dipentylimidazolidin-2-one], for which the “drug transport when combined with a polar substance such as ethanol” value in [2] is “potentiates the drug transport”.

For `CCCCCCCCCCCCN1CCCCCC1=O` [1-Dodecylhexahydro-2H-azepin-2-one, 1-Dodecyl-hexahydro-2H-azepin-2-one, reference compound], the “Average Cumulative Amount of ISDN in Micrograms permeating over 51 hours” value in [3] (1% ISDN + 1.4% enhancer) came to 709 ± 170 Micrograms.

With `COc1ccc([C@@H]2Sc3ccccc3N(CCN(C)C)C(=O)[C@@H]2OC(C)=O)cc1` [DZ, Diltiazem hydrochloride, reference compound], in data set [4] (5% DZ, no enhancer (Control)), the “Average Cumulative amount of DZ in Micrograms permeating over 24 hours” value turned out to be 125.3 ± 37 Micrograms.

With `CCCCCCCCCCC1COC(=O)N1` (centres unmarked) [Example 1, 4-Decyloxazolidin-2-one], the “Average Cumulative Amount of ISDN in Micrograms permeating over 51 hours” value in [5] (3% ISDN (60%) + 8% enhancer) came to 1438.4 ± 174 Micrograms; in data set [5] (3% ISDN (100%) + 3% enhancer) it was 1355.8 ± 262.5 Micrograms; in data set [3] (1% ISDN + 1.4% enhancer), 1275 ± 104 Micrograms. For the same compound, the “permeation of ISDN from the transdermal patch (conclusion in words)” value in [5] (vs control) was “superior to the control”. In addition, the “Average Cumulative amount of DZ in Micrograms permeating over 24 hours” value in [4] (5% DZ + 3% enhancer) was 303.0 ± 79.1 Micrograms. For the same compound, the “permeation of Diltiazem hydrochloride through the skin (conclusion in words)” value in data set [4] (vs control) is on record as “improves the permeation of Diltiazem hydrochloride through the skin significantly over the control”. The “permeation enhancement of Nicotine (conclusion in words)” value in [6] (cream and patch, vs control) is recorded as “enhances the permeation significantly over control”. Also, the “Average Cumulative Amount of Nicotine in Micrograms permeating over 51 hours” value in data set [6] (cream, 1% Nicotine + 3% enhancer) stood at 2002.0 ± 74.0 Micrograms; in [6] (cream, 5% Nicotine + 3% enhancer), 8497.2 ± 1195 Micrograms; in data set [6] (patch, 5% Nicotine + 3% enhancer) it was 208.1 ± 23.6 Micrograms; in data set [6] (patch, 10% Nicotine + 3% enhancer), 3520.0 ± 139.0 Micrograms. The “superiority of transdermal patch containing enhancer (conclusion in words)” value in data set [7] (PG patch) is given as “superiority of the transdermal patch”. Moreover, the “Average Cumulative Amount of PG in Micrograms permeating over 51 hours” value in data set [7] (3% PG + 5% enhancer) is 434 ± 135 Micrograms. Moreover, the “superiority of patch formulation containing enhancer (conclusion in words)” value in [8] (MS patch) is “superiority of the transdermal patch formulation”. Also, the “Average Cumulative Amount of MS in Micrograms permeating over 51 hours” value in data set [8] (patch, 5% MS + 1% enhancer) amounted to 622 ± 81.6 Micrograms. Besides, the “permeation enhancing properties (conclusion in words)” value (from here on “permeation enhancing properties”) in data set [3] was “superior permeation enhancing properties as compared to control and a known permeation enhancer”. Further, the “Average Cumulative Amount of HC in Micrograms permeating over 24 hours” value in [9] (0.5% HC + 1% enhancer) was 4.970 ± 0.79 Micrograms. Further, the “permeation of HC (conclusion in words)” value in data set [9] (vs control and commercial formulation) was “superior permeation as compared to control cream and to a commercial formulation with higher quantity of drug”. Also, the “advantage of incorporating enhancer (conclusion in words)” value in [10] (INDO gel and cream) was “clearly show the advantage of incorporating enhancer”. Moreover, the “Average Cumulative Amount of INDO in Micrograms permeating over 51 hours” value in data set [10] (cream, 1% INDO + 1% enhancer) was found to be 128 ± 6.1 Micrograms; in data set [10] (gel, 1% INDO + 1% enhancer), 370.9 ± 56 Micrograms.

Regarding `CCCCCCCCCCC1COC(=O)N1C` (centres unmarked) [Example 2, 3-methyl-4-decyloxazolidin-2-one], the “permeation enhancing properties” value in data set [3] was “superior permeation enhancing properties as compared to control and a known permeation enhancer”. Besides, the “Average Cumulative Amount of ISDN in Micrograms permeating over 51 hours” value in [3] (1% ISDN + 1.6% enhancer) was determined as 1020 ± 69 Micrograms.

For `CCCCCCCCCCC1COC(=O)O1` (centres unmarked) [Example 10, 4-decyl-1,3-dioxolan-2-one], in [11], the “permeation enhancing properties” value was “superior permeation enhancing properties as compared to control” and the “Average Cumulative Amount of ISDN in Micrograms permeating over 51 hours” value was 1174.5 ± 37.2 Micrograms.

With `CCCCN1C(=O)N(CCC)C(OCC)C1OCC` (centres unmarked) [Example 12, 4,5-diethoxy-1-butyl-3-propylimidazolidin-2-one], in [11], the “permeation enhancing properties” value is reported as “superior permeation enhancing properties as compared to control” and the “Average Cumulative Amount of ISDN in Micrograms permeating over 51 hours” value is 1057.7 ± 12.0 Micrograms.

With `CCCCCCCCOC1C(OCCCCCCCC)N(C)C(=O)N1C` (centres unmarked) [Example 15, 4,5-dioctyloxy-1,3-dimethylimidazolidin-2-one], in [11], the “permeation enhancing properties” value is recorded as “superior permeation enhancing properties as compared to control” and the “Average Cumulative Amount of ISDN in Micrograms permeating over 51 hours” value was 1175.6 ± 33.6 Micrograms.

In the case of `CCOCCCN1CCOC1=O` [Example 16, 3-(3-ethoxypropyl)oxazolidin-2-one], in data set [11], the “permeation enhancing properties” value is given as “superior permeation enhancing properties as compared to control” and the “Average Cumulative Amount of ISDN in Micrograms permeating over 51 hours” value is recorded as 1110.9 ± 84.1 Micrograms.

For the compound `CCCCCCCCOCCN1CCOC1=O` [Example 18, 3-(2-octyloxyethyl)oxazolidin-2-one], in data set [11], the “permeation enhancing properties” value is “superior permeation enhancing properties as compared to control” and the “Average Cumulative Amount of ISDN in Micrograms permeating over 51 hours” value was determined as 1185.1 ± 94.7 Micrograms.

In the case of `CCCCCCCCCCCC1CNC(=O)N1` (centres unmarked) [Example 19, 4-undecylimidazolidin-2-one], in [11], the “permeation enhancing properties” value is reported as “superior permeation enhancing properties as compared to control” and the “Average Cumulative Amount of ISDN in Micrograms permeating over 51 hours” value is 1318.4 ± 21.6 Micrograms.

As for `CCCCN1C(=O)OCC1Cc1ccccc1` (centres unmarked) [Example 20, 3-butyl-4-benzyloxazolidin-2-one], in data set [11], the “permeation enhancing properties” value is recorded as “superior permeation enhancing properties as compared to control” and the “Average Cumulative Amount of ISDN in Micrograms permeating over 51 hours” value worked out at 1147.7 ± 36.0 Micrograms.

For `CCCCCCCCCCCC1CN(C)C(=O)N1C` (centres unmarked) [Example 21, 1,3-dimethyl-4-undecylimidazolidin-2-one], in [11], the “permeation enhancing properties” value is “superior permeation enhancing properties as compared to control” and the “Average Cumulative Amount of ISDN in Micrograms permeating over 51 hours” value worked out at 1257.0 ± 137.0 Micrograms.

As for `CCCCN1CCN(CCOCC)C1=O` [Example 22, 1-butyl-3-(2-ethoxyethyl)imidazolidin2-one], in [11], the “permeation enhancing properties” value is listed as “superior permeation enhancing properties as compared to control” and the “Average Cumulative Amount of ISDN in Micrograms permeating over 51 hours” value stood at 1091.2 ± 125.0 Micrograms.

For the compound `COc1ccc2c(c1)c(CC(=O)O)c(C)n2C(=O)c1ccc(Cl)cc1` [INDO, Indomethacin, reference compound], the “Average Cumulative Amount of INDO in Micrograms permeating over 51 hours” value in data set [10] (cream, 1% INDO, no enhancer) is given as 72 ± 9 Micrograms; in data set [10] (gel, 1% INDO, no enhancer (Control)), 304.8 ± 20 Micrograms.

Consider `CC(=O)[C@H]1CC[C@H]2[C@@H]3CCC4=CC(=O)CC[C@]4(C)[C@H]3CC[C@]12C` [PG, Progesterone, reference compound], for which the “Average Cumulative Amount of PG in Micrograms permeating over 51 hours” value in data set [7] (3% PG, no enhancer (Control)) was found to be 86 ± 61 Micrograms.

As to `O=C1OCCO1` [ethylene carbonate, 1,3-dioxolan-2-one], the “efficacy on addition to the composition” value in [12] was “did not improve the efficacy”.

As to `CC1COC(=O)O1` (centres unmarked) [propylene carbonate, 4-methyl-1,3-dioxolan-2-one], the “flux of model penetrants through human skin” value in [13] was “low flux”. Moreover, the solubility in water result in [14] was “water soluble”.

Values taken from US4960771A, “Oxazolidinone penetration enhancing compounds” (priority 1988, dated 1990).
